Laboratory results published in US20190040016A1, “INDOLE AND INDAZOLE COMPOUNDS AND THERAPEUTIC USES THEREOF” (REGENTS OF THE UNIVERSITY OF MINNESOTA, priority 2016, published 2019).

Assays:
[1] = tested on: MDA-MB-231 (a human triple negative breast cancer cell line); assay: In vitro cytotoxicity evaluation, MDA-MB-231; assay type: cell-based; details: MDA-MB-231 cells, average ± SEM of minimum three individual experiments
Description: (§1) […] Cell line MDA-MB-231 (a human triple negative breast cancer cell line) and cell line 4T1 (a metastatic murine breast cancer cell line) were used for testing.

[2] = tested on: 4T1 (a metastatic murine breast cancer cell line); assay: In vitro cytotoxicity evaluation, 4T1; assay type: cell-based; details: Mus musculus; 4T1 cells; average ± SEM of minimum three individual experiments
Description: as §1

| Structure (SMILES) | IC50 [1] | IC50 [2] |
| --- | --- | --- |
| O=C(O)c1nn(-c2ccc(N(Cc3ccccc3)Cc3ccccc3)cc2)c2ccccc12 [Compound A-1] | > 25 µM | > 25 µM |
| COC(=O)c1nn(-c2ccc(N(Cc3ccccc3)Cc3ccccc3)cc2)c2ccccc12 [Compound A-2] | > 25 µM | > 25 µM |
| C=C(COC(=O)c1nn(-c2ccc(N(Cc3ccccc3)Cc3ccccc3)cc2)c2ccccc12)C(=O)OC [Compound A-3] | > 25 µM | > 25 µM |
| COC(=O)C(O)(CO)COC(=O)c1nn(-c2ccc(N(Cc3ccccc3)Cc3ccccc3)cc2)c2ccccc12 (centres unmarked) [Compound A-4] | 2.33 ± 0.48 µM | 4.9 ± 0.42 µM |
| C=C(COC(=O)c1nn(-c2ccc(N(Cc3ccc(Cl)cc3)Cc3ccc(Cl)cc3)cc2)c2ccccc12)C(=O)OC [Compound A-5] | > 25 µM | > 25 µM |
| COC(=O)C(O)(CO)COC(=O)c1nn(-c2ccc(N(Cc3ccc(Cl)cc3)Cc3ccc(Cl)cc3)cc2)c2ccccc12 (centres unmarked) [Compound A-6] | 4.51 ± 0.95 µM | 4.8 ± 1.01 µM |
| C=C(COC(=O)c1nn(-c2ccc(N(Cc3ccc(F)cc3)Cc3ccc(F)cc3)cc2)c2ccccc12)C(=O)OC [Compound A-7] | > 25 µM | 10.8 ± 2.28 µM |
| COC(=O)C(O)(CO)COC(=O)c1nn(-c2ccc(N(Cc3ccc(F)cc3)Cc3ccc(F)cc3)cc2)c2ccccc12 (centres unmarked) [Compound A-8] | 3.02 ± 0.68 µM | 2.87 ± 0.86 µM |
| C=C(COC(=O)c1nn(-c2ccc(N(Cc3ccc(OC)cc3)Cc3ccc(OC)cc3)cc2)c2ccccc12)C(=O)OC [Compound A-9] | > 25 µM | > 25 µM |
| COC(=O)C(O)(CO)COC(=O)c1nn(-c2ccc(N(Cc3ccc(OC)cc3)Cc3ccc(OC)cc3)cc2)c2ccccc12 (centres unmarked) [Compound A-10] | 4.96 ± 1.19 µM | 7.12 ± 1.13 µM |
